Assay results as given in US6723708B2, “Use of lithium (Li+) for the preparation of a composition for transfection of a polynucleotide into a cell and compositions useful in gene therapy” (Transgene S.A., priority 1999, dated 2004).

Tested on: tibialis anterior muscles
Assay: Intramuscular transfection of plasmid pTG11033 with LiCl, luciferase activity in muscle extracts
Format: in vivo, C57BL/10 mice
Conditions: pTG11033 25 μg/muscle intramuscular with LiCl 0.1, 1, 10 mM; measured 7 days after injection; versus NaCl 0.9% control
Method: Plasmid DNA (pTG11033: CMV promoter, β-globin intron, luciferase cassette—WO 98/34910) was prepared according to Bischoff et al., Analytical Biochemistry 254 (1997), 69-81. Prior to intramuscular injection the tested molecules were mixed with the plasmid DNA preparation. 25 μg of plasmid DNA were injected per muscle into 5 to 10 week-old C57BL/10 mice. The 2 tibialis anterior (right and left) muscles were injected (each muscle was considered as a sample). Furthermore, for each condition, both the lowest and highest luciferase acitvity values were omitted, which means number of sample per condition=(2×number of mice per condition)−2.
One week after injection of the composition, the mice were killed and the tibialis anterior muscles were retrieved and frozen. Luciferase activity was quantified on whole muscle extracts using a conventional measurement kit (Luciferase Assay System, Promega). Briefly, muscles were ground separately and diluted in 200 μl of reporter lysis buffer (Promega). 10 μl-samples were placed in 96 well-plates and mixed with 100 μl of substrate. Luciferase activity was expressed as number of RLU emitted per minute, per mg of protein.
Protein was measured on 10 μl samples using a VCA Protein Assay kit (Pierce).
In this example, the stock solution of plasmid pTG11033 was prepared in TE buffer (Tris 10 mM—EDTA 1 mM) at a nucleic acid concentration of […]. […]

Q: How did the “increase of luciferase activity in the injected muscles” value turn out when `[Cl-].[Li+]` [LiCI, lithium chloride] was run?
A: around 5 times
